Assay results taken from ChEMBL document CHEMBL1141884 (Bioorg Med Chem Lett, 2005).

What was measured:
Cholinesterase = Cholinesterase (Homo sapiens, UniProt P06276)
Description: Inhibitory concentration against Butyrylcholinesterase activity

Acetylcholinesterase [1] = biological target: T1, Acetylcholinesterase (Homo sapiens, UniProt P22303); assay: Inhibitory concentration against Acetylcholinesterase activity
Acetylcholinesterase [2] = biological target: T1, Acetylcholinesterase; assay: Binding affinity for Acetylcholinesterase
[3] = substrate: COc1ccc(-c2cc3c(c(=O)o2)C[C@@]2(O)[C@@]4(C)CCC(=O)OC(C)(C)[C@@]4(O)CC[C@@]2(C)O3)cc1; assay: Michaelis-Menten constant for affinity against Acetylcholinesterase

Sequence of Cholinesterase (P06276 whole entry): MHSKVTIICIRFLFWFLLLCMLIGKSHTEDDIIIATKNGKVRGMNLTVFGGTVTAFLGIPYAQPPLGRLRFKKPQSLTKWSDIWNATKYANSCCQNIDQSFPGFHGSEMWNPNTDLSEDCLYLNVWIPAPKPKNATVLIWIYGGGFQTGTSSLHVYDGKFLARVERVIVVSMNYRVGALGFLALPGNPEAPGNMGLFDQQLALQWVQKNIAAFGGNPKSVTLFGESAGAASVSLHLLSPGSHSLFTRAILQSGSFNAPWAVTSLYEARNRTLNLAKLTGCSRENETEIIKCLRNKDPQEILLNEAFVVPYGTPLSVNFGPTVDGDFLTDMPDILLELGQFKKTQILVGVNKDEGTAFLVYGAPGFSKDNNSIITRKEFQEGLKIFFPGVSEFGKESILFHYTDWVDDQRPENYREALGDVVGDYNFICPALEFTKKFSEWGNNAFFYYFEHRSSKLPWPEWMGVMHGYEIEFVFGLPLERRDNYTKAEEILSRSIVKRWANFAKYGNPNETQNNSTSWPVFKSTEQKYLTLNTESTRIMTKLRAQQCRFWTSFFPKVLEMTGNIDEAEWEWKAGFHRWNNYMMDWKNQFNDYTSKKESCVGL

| Molecule | IC50 (Cholinesterase) | IC50 (Acetylcholinesterase [1]) | Ki (Acetylcholinesterase [2]) | Km [3] |
| --- | --- | --- | --- | --- |
| COC1=CC(=O)[C@]2(C)[C@]3(O)Cc4c(cc(-c5cc(OC)c(OC)c(OC)c5)oc4=O)O[C@]3(C)CC[C@]2(O)C1(C)C | > 200000 nM | 420 nM | – | – |
| COc1ccc(-c2cc3c(c(=O)o2)C[C@@]2(O)[C@@]4(C)C=CC(=O)C(C)(C)[C@@]4(O)CC[C@@]2(C)O3)cc1 | > 200000 nM | 90 nM | – | – |
| COc1ccc(-c2cc3c(c(=O)o2)C[C@@]2(O)[C@@]4(C)CCC(=O)OC(C)(C)[C@@]4(O)CC[C@@]2(C)O3)cc1 | > 500000 nM | – | 2300 nM | – |
| COc1ccc(-c2cc3c(c(=O)o2)C[C@@]2(O)[C@@]4(C)CCC(=O)C(C)(C)[C@@]4(O)CC[C@@]2(C)O3)cc1 | > 200000 nM | 60 nM | – | – |
| COc1ccc(-c2cc3c(c(=O)o2)C[C@@]2(O)[C@@]4(C)C(=O)[C@@]5(OC)C(=O)O[C@]4(CC[C@@]2(C)O3)C5(C)C)cc1 [TERREULACTONE A] | > 200000 nM | 230 nM | – | – |
| Acetylcholinesterase (Homo sapiens), P22303 (protein) MRPPQCLLHTPSLASPLLLLLLWLLGGGVGAEGREDAELLVTVRGGRLRGIRLKTPGGPVSAFLGIPFAEPPMGPRRFLPPEPKQPWSGVVDATTFQSVCYQYVDTLYPGFEGTEMWNPNRELSEDCLYLNVWTPYPRPTSPTPVLVWIYGGGFYSGASSLDVYDGRFLVQAERTVLVSMNYRVGAFGFLALPGSREAPGNVGLLDQRLALQWVQENVAAFGGDPTSVTLFGESAGAASVGMHLLSPPSRGLFHRAVLQSGAPNGPWATVGMGEARRRATQLAHLVGCPPGGTGGNDTELVACLRTRPAQVLVNHEWHVLPQESVFRFSFVPVVDGDFLSDTPEALINAGDFHGLQVLVGVVKDEGSYFLVYGAPGFSKDNESLISRAEFLAGVRVGVPQVSDLAAEAVVLHYTDWLHPEDPARLREALSDVVGDHNVVCPVAQLAGRLAAQGARVYAYVFEHRASTLSWPLWMGVPHGYEIEFIFGIPLDPSRNYTAEEKIFAQRLMRYWANFARTGDPNEPRDPKAPQWPPYTAGAQQYVSLDLRPLEVRRGLRAQACAFWNRFLPKLLSATDTLDEAERQWKAEFHRWSSYMVHWKNQFDHYSKQDRCSDL | – | – | – | 20 µM |
